The target of one test is T1, PK40 (ERK2) (Homo sapiens, UniProt P28482).
T1 construct: made in house; host or cells: E. coli BL21 pLysS (printed 'B121pLysS'), pET-14b vector
In words: PK40(ERK2) kinase inhibition assay. The class given is biochemical. Particulars: 0.25 mM ATP, myelin basic protein substrate. The method, then:
Preparation of ERK2: Recombinant human ERK2 with a N-terminal histidine (his) tag was prepared as follows: An ERK2 cDNA clone was amplified from a human frontal cortex library by PCR with primers matching the published human sequence [Gonzales F. A. et al, FEBS Lett. 304, 170-178 (1992)]. The histidine tag was introduced by site-directed mutagenesis. The cDNA was cloned into a pET-14b (Novagen) vector and transfected into the E. coli lysogen strain B121pLysS. Single colony transformants were grown in LB medium containing […] chloramphenicol to maintain pLysS and […] to an O.D.600 OF 0.6. The culture was then induced with 0.4 mM IPTG for 4 hours. The expressed ERK2 protein was then analyzed on a 10% SDS PAGE by both coomassie blue staining and anti-ERK Western blotting. […]
Enzyme, substrate and inhibitor were preincubated for 5-10 min at 4° C. in assay buffers containing a final concentration of 2% DMSO before initiating the reaction with 0.25 mM γ^2P-ATP. […] The filtermats were washed twice for several hours with TCA/PPA until all background radioactivity was removed. Precipitable counts were quantitated directly on the filtermat with a microbeta scintillation counter system (Wallac-Pharmacia). Inhibitor data were subjected to curve fitting and IC50 values were calculated from these curves using the GraphIt program.

The target of the next test is T2, PKA (Bos taurus, UniProt P00517).
T2 construct: The catalytic subunit of bovine heart PKA was obtained commercially from Sigma; purchased Sigma; host or cells: bovine heart
In words: PKA catalytic subunit inhibition assay. Particulars: footnote a) on the CII value: partial inhibition only. The class given is biochemical, bovine. How it is done: Preparation of cAMP-dependent Kinase: The catalytic subunit of bovine heart PKA was obtained commercially from Sigma.
The catalytic subunit of PKA was assayed in 50 μl 25 mM HEPES, pH 7.0, 10 mM MgCl2, 1 mM EDTA, 1 mM DTT, using 70 ng PKA and 0.1 mg/mL human recombinant tau protein as a substrate.
Enzyme, substrate and inhibitor were preincubated for 5-10 min at 4° C. in assay buffers containing a final concentration of 2% DMSO before initiating the reaction with 0.25 mM γ^2P-ATP. Samples were incubated for 30 min at 37° C. and reactions were terminated with 10% trichloracetic acid/2% sodium pyrophosphate (TCA/PPA), followed by filtration over a glass fiber filtermat (type A) with a cell harvester (Tomtec). The filtermats were washed twice for several hours with TCA/PPA until all background radioactivity was removed. Precipitable counts were quantitated directly on the filtermat with a microbeta scintillation counter system (Wallac-Pharmacia). Inhibitor data were subjected to curve fitting and IC50 values were calculated from these curves using the GraphIt program.

The values that follow come from US6541468B1, “Indolocarbazole derivatives useful for the treatment of neurodegenerative diseases and cancer” (Bayer Corporation, priority 1998, dated 2003).

Molecules are shown by their SMILES.

T1 sequence (P28482 whole entry): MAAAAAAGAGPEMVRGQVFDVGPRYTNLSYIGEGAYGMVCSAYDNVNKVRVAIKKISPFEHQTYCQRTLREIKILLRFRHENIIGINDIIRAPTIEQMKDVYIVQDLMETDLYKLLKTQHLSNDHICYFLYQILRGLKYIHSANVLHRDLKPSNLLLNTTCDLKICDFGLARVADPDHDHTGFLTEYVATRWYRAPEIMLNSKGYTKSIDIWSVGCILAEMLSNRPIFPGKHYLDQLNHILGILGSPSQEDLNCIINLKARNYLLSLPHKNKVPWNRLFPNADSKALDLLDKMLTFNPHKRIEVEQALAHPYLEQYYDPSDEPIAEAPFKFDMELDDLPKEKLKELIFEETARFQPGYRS

A word on the IC50: it is the concentration that inhibits the measured activity by half. Low readings indicate greater potency, high ones weaker potency. As to `CNC(=O)[C@]1(O)CC2CC1n1c3ccccc3c3c4c(c5c6ccccc6n2c5c31)C(=O)NC4=O` (stereo partly drawn) [CII, 9,12-Methano-1H-diindolo[1,2,3-fg:3′,2′,1′-kl]pyrrolo[3,4-I][1,6] benzodiazocine-10-carboxamide, 2,3,9,10,11,12-hexahydro-10-hydroxy-N-methyl-1,3-dioxo-(9α,10β,12α)], the half-maximal inhibitory concentration (IC50) at PK40 (ERK2) stood at 44 nM; against PKA, 650 nM.
Take `COC(=O)[C@@]1(O)C[C@H]2C[C@@H]1n1c3ccccc3c3c4c(c5c6ccccc6n2c5c31)C(=O)NC4=O` (relative stereo) [CIII, 9,12-Methano-1H-diindolo[1,2,3-fg:3′,2′,1′-kl]pyrrolo[3,4-I][1,6] benzodiazocine-10-carboxylic acid, 2,3,9,10,11,12-hexahydro-10-hydroxy-1,3-dioxomethyl ester, (9α,10β,12α)]: the 50% inhibitory concentration (IC50) is greater than 30000 nM at PK40 (ERK2) and greater than 100000 nM at PKA.
